Source: patent publication US12116635B2, “Methods for detecting and treating cancers having adenosine pathway activation” (Corvus Pharmaceuticals, Inc., priority 2018, dated 2024)
Entries after “also recorded” stand apart in the source; their conditions may differ.

Experiments:
A2AR = assay: In vitro A2AR stimulation gene signature +/- CPI-444 (transcript and protein); assay type: cell-based, human; details: at the transcript and protein level
Method: RNA purified from normal, healthy human peripheral blood mononuclear cells (PBMCs) treated with 5′-N-ethylcarboxamidoadenosine (NECA) and activated with anti-CD3/CD28 antibody were analyzed by NanoString hybridization-based quantification (NanoString Technologies, Inc.). […] Each dot represents the expression level of a specific gene. Dot shade represents the concentration of NECA used and/or different PBMC donors. […] Increases in monocyte/macrophage inflammatory mediators such as IL-1b and CCL2, 3, 7, 8, 20 were also observed, as were increases in SERPINB2, S100A8, PTGS2, THBS1. Expression of CXCL10 and GZMB were decreased, consistent with a suppressed IFNg response. […] A2AR agonists induce a specific gene signature (increase in a certain subset of genes and/or decrease in a second subset of genes) dominated by immunosuppressive mediators of MDSC and monocyte/macrophage biology. Inhibition of these genes by CPI-444 are observed. These gene signatures may be used as biomarkers for patient selection.

PBMCs = assay: CXCL5 protein ELISA in culture supernatants of PBMCs treated with NECA +/- CPI-444; assay type: cell-based, human
Method: Expression of CXCL5 was determined by ELISA 2 days after activation.
FIGS. 2B and 2C show the response of PBMCs from two different donors to NECA+/−CPI-444 treatment. DMSO was used as vehicle control. […] This control helps establish that the induction of CXCL5 is specific to signaling through adenosine receptors.
NECA activation of CXCL5 protein expression was evaluated. PBMCs were harvested from two different human donors. […] CPI-444 (Corvus Pharmaceuticals) is an antagonist of the adenosine A2A receptor. CXCL5 protein in the culture supernatants was evaluated by ELISA two days after activation. CXCL5 expression is activated by NECA. […] This establishes that the induction of CXCL5 is specific to signaling through adenosine receptors.

advanced cancers = assay: Ongoing phase 1/1b trial in patients with advanced cancers; assay type: in vivo, human; details: as a monotherapy and in combination with atezolizumab
Source text: “Adenosine receptor antagonist” refers to a molecule that inhibits activity of adenosine receptors (e.g. A2A or A2B receptors), typically through direct action. Adenosine receptors antagonists can be small or large molecule antagonists. In embodiments, CPI-444 is an example A2A receptor antagonist. […] CPI-444 is described, for example, in PCT Patent Publication No. WO 2017/112917; each of which is incorporated herein by reference in its entirety.

[1] = test system: human peripheral blood mononuclear cells (PBMCs); assay: NanoString quantification of mRNA in NECA-treated, anti-CD3/CD28-activated PBMCs; assay type: cell-based; details: 0.1 μM, 1 μM, and/or 10 μM NECA vs vehicle-treated control
Method: RNA purified from normal, healthy human peripheral blood mononuclear cells (PBMCs) treated with 5′-N-ethylcarboxamidoadenosine (NECA) and activated with anti-CD3/CD28 antibody were analyzed by NanoString hybridization-based quantification (NanoString Technologies, Inc.). […] Each dot represents the expression level of a specific gene. Dot shade represents the concentration of NECA used and/or different PBMC donors.

[2] = test system: human peripheral blood mononuclear cells (PBMCs); assay: RNA sequencing (RNA-Seq) of NECA-treated PBMCs; assay type: cell-based
Method: RNA purified from normal, healthy human peripheral blood mononuclear cells (PBMCs) treated with 5′-N-ethylcarboxamidoadenosine (NECA) and activated with anti-CD3/CD28 antibody were analyzed by NanoString hybridization-based quantification (NanoString Technologies, Inc.). […] Each dot represents the expression level of a specific gene. Dot shade represents the concentration of NECA used and/or different PBMC donors. […] Data were confirmed by RNA sequencing (RNA-Seq).

## Cc1ccc(-c2nc(N)nc3c2nnn3Cc2cccc(CO[C@H]3CCOC3)n2)o1 [CPI-444, (S)-7-(5-methylfuran-2-yl)-3-((6-(((tetrahydrofuran-3-yl)oxy)methyl)pyridin-2-yl)methyl)-3H-[1,2,3]triazolo[4,5-d]pyrimidin-5-amine]
A2AR
  Inhibition of A2AR-stimulation-induced gene expression changes: inhibited these changes
PBMCs; PBMCs treated with NECA, followed by CPI-444, then anti-CD3/CD28, ELISA two days after activation
  Blocking of NECA-induced CXCL5 protein expression: can be blocked
Advanced cancers
  anti-tumor activity: demonstrated anti-tumor activity

## CCNC(=O)[C@H]1O[C@@H](n2cnc3c(N)ncnc32)[C@H](O)[C@@H]1O [NECA, 5′-N-ethylcarboxamidoadenosine]
[1]
  logFC CD14: 0.4485
  logFC CD86: 0.3148
  logFC CLEC5A: 0.3833
  logFC CXCL1: 0.6909
  logFC CXCL2: 1.093
  logFC CXCL3: 1.101
  logFC CXCL5: 1.338
  logFC CXCL6: 0.6535
  logFC IL1A: 0.6367
  logFC IL1B: 0.6345
  logFC IL6: 0.7014
  logFC IL8: 0.6411
  logFC IL23A: 0.4628
  logFC IL24: 0.5768
  logFC PLAUR: 0.5031
  logFC PPBP: 0.683
  logFC PTGS2: 0.6892
  logFC SLC11A1: 0.7022
  logFC TBX21: −0.1238
  logFC THBS1: 0.8703
[2]; Control (DMSO) vs 0.1 μm NECA
  logFC CCL24: −1.068
  logFC CD93: 0.9975
  logFC CSF3: 1.603
  logFC CXCL2: 1.452
  logFC CXCL3: 1.694
  logFC CXCL5: 2.388
  logFC EHF: −0.2753
  logFC EML6: 0.2117
  logFC EPB41L3: 1.183
  logFC FUT7: −0.2135
  logFC HAS1: 2.059
  logFC IL23A: 0.7971
  logFC INHBA: 0.5196
  logFC KLC4: 0.216
  logFC LAYN: 0.4228
  logFC MRPL11: −0.19
  logFC MS4A7: 0.9319
  logFC NPR1: 0.7892
  logFC OST4: 0.2352
  logFC PADI2: 0.4802
  logFC PTGS2: 1.184
  logFC SLC7A7: 0.5935
  logFC SPON1: 0.3611
  logFC ST6GALNAC2: 0.5342
  logFC SYTL3: 0.2894
  logFC WDR83OS: −0.2872
  logFC ZBTB18: 0.2431
[2]; Control (DMSO) vs 1 μm NECA
  logFC CCDC60: 0.07658
  logFC CD93: 1.454
  logFC CSF3: 2.802
  logFC CXCL2: 2.361
  logFC CXCL3: 2.573
  logFC CXCL5: 3.451
  logFC EHF: −0.2522
  logFC EMR3: 1.364
  logFC EPB41L3: 1.854
  logFC EREG: 1.89
  logFC FUT7: −0.4158
  logFC GPR157: 0.9283
  logFC HAS1: 3.238
  logFC IL23A: 1.363
  logFC IL24: 2.876
  logFC INHBA: 0.9638
  logFC LAYN: 0.5277
  logFC MS4A7: 1.535
  logFC OST4: −0.1747
  logFC PADI2: 0.7173
  logFC PID1: 1.729
  logFC PTGS2: 2.23
  logFC SLC7A7: 0.9514
  logFC SPON1: 0.5667
  logFC ST6GALNAC2: 0.8306
  logFC TGIF1: 0.4769
  logFC ZBTB18: 0.3385
[2]; Control (DMSO) vs 10 μm NECA
  logFC CCNE1: −0.4518
  logFC CD93: 1.895
  logFC CD300E: 1.71
  logFC CSF3: 3.508
  logFC CXCL2: 3.011
  logFC CXCL3: 3.106
  logFC CXCL5: 3.354
  logFC DENA5: 0.6559
  logFC ECEL1: 0.6918
  logFC EPB41L3: 2
  logFC GALM: −0.3189
  logFC GBP6: −0.8039
  logFC GPR157: 1.139
  logFC HAS1: 3.807
  logFC IL5: −0.6885
  logFC IL23A: 1.332
  logFC INHBA: 1.192
  logFC LAP3: −0.4286
  logFC LOC100505585: 0.6639
  logFC NID1: 1.087
  logFC PADI2: 0.9386
  logFC PID1: 2.124
  logFC PTGS2: 2.349
  logFC RHCG: 0.5767
  logFC SLC7A7: 0.9134
  logFC SPON1: 0.568
  logFC ST6GALNAC2: 0.876
PBMCs; PBMCs from two human donors, anti-CD3/CD28 activated, two days after activation, vs DMSO
  CXCL5 protein in the culture supernatants (ELISA): activated; also recorded: dose-dependent increase in CXCL5
